Read-outs that look alike come from different tables or passages of the source.
Tests used:
[1] = tested on: Botryotinia fuckeliana (Botrytis cinerea); test: Botryotinia fuckeliana (Botrytis cinerea) / liquid culture (gray mould); type: cell-based; details: 72 h, read-out: control of Botryotinia fuckeliana
[2] = tested on: Glomerella lagenarium (Colletotrichum lagenarium); test: Glomerella lagenarium (Colletotrichum lagenarium) / liquid culture (anthracnose); type: cell-based; details: Colletotrichum orbiculare, read-out: control of Glomerella lagenarium
Fusarium culmorum [3] = test: microbe, parasite or virus in culture; type: cell-based; details: read-out: control of Fusarium culmorum
[4] = tested on: Monographella nivalis (Microdochium nivale); test: Monographella nivalis (Microdochium nivale) / liquid culture (foot rot cereals); type: cell-based; details: 96 h, inhibition of growth photometrically 4-5 days after application, compared to untreated control
Fusarium culmorum [5] = test: whole plant or invertebrate; type: in vivo, Fusarium culmorum on wheat spikelets cv. Monsun; details: in Triticum aestivum, read-out: control of Fusarium culmorum
[6] = tested on: Magnaporthe grisea (Pyricularia oryzae); test: microbe, parasite or virus in culture; type: cell-based; details: 72 h, read-out: control of Magnaporthe grisea
Sclerotinia sclerotiorum = Sclerotinia sclerotiorum / liquid culture (cottony rot); details: 72 h, read-out: control of Sclerotinia sclerotiorum
Method: Sclerotinia sclerotiorum/Liquid Culture (Cottony Rot)
Mycelia fragments of a newly grown liquid culture of the fungus are directly mixed into nutrient broth (Vogels broth). After placing a (DMSO) solution of test compound into a microtiter plate (96-well format) the nutrient broth containing the fungal material is added. The test plates are incubated at 24° C. and the inhibition of growth is determined photometrically 3-4 days after application.

[7] = 20 ppm, liquid culture, inhibition of growth photometrically 3-4 days after application, compared to untreated control

Row | Structure (SMILES) | inhibition of growth at 20 ppm [1, 7] | inhibition of growth at 20 ppm [2, 7] | inhibition of growth at 20 ppm (Fusarium culmorum [3]) | inhibition of growth at 20 ppm [4] | pest or weed control at 200 ppm (Fusarium culmorum [5]) | inhibition of growth at 20 ppm [6] | melting point | inhibition of growth at 20 ppm (Sclerotinia sclerotiorum) | inhibition of growth at 20 ppm [1] | inhibition of growth at 20 ppm [2]
1 | CCCC(C)CC(C)NC(=O)c1cnc2c(F)cccc2c1 (stereo not shown) [E-51] | ≥ 80% | ≥ 80% | ≥ 80% | ≥ 80% | – | – | – | – | – | –
2 | CCCC(C)CC(C)(CC(F)(F)F)NC(=O)c1cnc2c(F)cccc2c1 (stereo not shown) [E-52] | ≥ 80% | ≥ 80% | ≥ 80% | ≥ 80% | ≥ 80% | ≥ 80% | – | – | – | –
3 | C/C(=C/c1ccccc1)CC(C)(C)NC(=O)c1cnc2c(F)cccc2c1 [E-31] | ≥ 80% | – | – | ≥ 80% | – | – | 127 to 129 °C | – | – | –
4 | C=C(C)CC(COC)(CC(=C)C)NC(=O)c1cnc2c(F)cccc2c1 [E-20] | ≥ 80% | ≥ 80% | ≥ 80% | ≥ 80% | ≥ 80% | ≥ 80% | 97 to 100 °C | – | – | –
5 | CCC(CC)CC(C)(CC(F)(F)F)NC(=O)c1cnc2c(C)cccc2c1 (stereo not shown) [E-44] | ≥ 80% | ≥ 80% | ≥ 80% | ≥ 80% | – | ≥ 80% | – | – | – | –
6 | O=C(NC(CC1CC1)CC1CC1)c1cnc2c(F)cccc2c1 [E-24] | ≥ 80% | ≥ 80% | ≥ 80% | – | – | ≥ 80% | 141 to 143 °C | – | – | –
7 | CC(C)CC(C)CC(C)(C)NC(=O)c1cnc2c(F)cccc2c1 (stereo not shown) [E-22] | ≥ 80% | ≥ 80% | ≥ 80% | ≥ 80% | – | ≥ 80% | – | – | – | –
8 | C/C(=C\c1ccccc1)CC(C)(C)NC(=O)c1cc2cccc(F)c2nc1C | – | – | – | – | – | – | 108 to 110 °C | – | – | –
9 | CC(CC1CC=CCC1)(CC(F)(F)F)NC(=O)c1cnc2ccccc2c1 (stereo not shown) [E-55] | ≥ 80% | ≥ 80% | ≥ 80% | ≥ 80% | ≥ 80% | ≥ 80% | 90 to 95 °C | – | – | –
10 | CCC(CC)CC(C)(CC(F)(F)F)NC(=O)c1cnc2ccccc2c1 (stereo not shown) [E-43] | ≥ 80% | ≥ 80% | ≥ 80% | – | ≥ 80% | ≥ 80% | 93 to 95 °C | – | – | –
11 | CC(C)CC(C)(CCc1ccccc1)NC(=O)c1cnc2c(F)cccc2c1 (stereo not shown) [E-8] | ≥ 80% | ≥ 80% | ≥ 80% | ≥ 80% | – | ≥ 80% | 170 to 175 °C | ≥ 80% | – | –
12 | CC(C)(C/C=C/c1ccccc1)NC(=O)c1cnc2c(F)c(F)ccc2c1 [E-34] | ≥ 80% | – | ≥ 80% | ≥ 80% | – | – | – | – | – | –
13 | CC(CC1CCCCC1)(CC(F)(F)F)NC(=O)c1cnc2ccccc2c1 (stereo not shown) [E-60] | ≥ 80% | ≥ 80% | ≥ 80% | ≥ 80% | ≥ 80% | ≥ 80% | 70 to 87 °C | – | – | –
14 | CC(C)=CCC(C)(CC(C)C)NC(=O)c1cnc2c(F)cccc2c1 (stereo not shown) [E-11] | ≥ 80% | ≥ 80% | ≥ 80% | ≥ 80% | – | ≥ 80% | 94 to 96 °C | – | – | –
15 | CCCCCC(C)(C)NC(=O)c1cnc2c(F)cccc2c1 [E-1] | – | – | ≥ 80% | – | – | – | – | – | ≥ 80% | ≥ 80%
16 | CC(C)CC(C)(CC(C)C)NC(=O)c1cnc2c(F)cccc2c1 [E-4] | ≥ 80% | ≥ 80% | ≥ 80% | – | – | ≥ 80% | 139 to 142 °C | ≥ 80% | – | –
17 | CC(CC1CC1)(CC1CC1)NC(=O)c1cnc2ccccc2c1 [E-26] | ≥ 80% | ≥ 80% | ≥ 80% | ≥ 80% | ≥ 80% | – | 92 to 94 °C | – | – | –
18 | CC(C)=CCC(C)(CC(C)C)NC(=O)c1cnc2ccccc2c1 (stereo not shown) [E-13] | ≥ 80% | ≥ 80% | ≥ 80% | ≥ 80% | – | ≥ 80% | – | – | – | –
19 | CC(C)CC(C)(C#N)NC(=O)c1cnc2c(F)cccc2c1 (stereo not shown) [E-35] | – | – | ≥ 80% | – | – | – | 167 to 171 °C | – | – | –

Reference: US11185074B2, “Microbiocidal quinoline (thio)carboxamide derivatives” (SYNGENTA PARTICIPATIONS AG, priority 2017, dated 2021)
